From patent US6500443B1, “Delivery of a sacrificial substrate to inhibit protease permeation into skin” (Kimberly-Clark Worldwide, Inc., priority 1999, dated 2002) come the findings set out here.

For the series the following is noted: excised skins, modified FRANZ diffusion cells, over a 36 hour period, from treated fabric. Here is the method:
The fabrics were then tested for topical delivery of the zinc salt using excised skins in modified FRANZ diffusion cells. The amount of zinc accumulating and penetrating the skin was determined over a 36 hour period.

Consider zinc sulfate monohydrate, for which the “accumulation of zinc in skin” value is 1311 μg/g dry weight of skin and the “penetration of zinc through skin” value was 3.2 μg/cm^2/hr.
